Active and inactive are the calls of the source. The calls are words filed in the database; no cut-off is given here.
Assays:
Bos taurus = species: Bos taurus; experiment: Displacement of [3H]Ro15-1788 from GABA-A receptor benzodiazepine site in bovine brain cerebral cortex membranes at 10 uM relative to control; details: Membrane
[1] = Displacement of [3H]Ro15-1788 from GABA-A receptor benzodiazepine site in bovine brain cerebral cortex membranes; design: species or system Bos taurus, Membrane
Mus musculus [2] = experiment: Anxiolytic-like activity in CD-1 mouse assessed as time spent in light area at 30 mg/kg, po administered 30 mins prior to test by light/dark exploration test relative to control; format: functional
[3] = biological target: GABA-A receptor; alpha-5/beta-3/gamma-2 (Homo sapiens) (UniProt P18507+P28472+P31644); experiment: Displacement of [3H]Ro15-1788 from GABA-Aalpha5beta3gamma2 receptor (unknown origin) expressed in cell membranes after 1 hr relative to control
Mus musculus [4] = experiment: Anxiolytic-like activity in CD-1 mouse assessed as number of transfer from one compartment to other at 30 mg/kg, po administered 30 mins prior to test followed by flumazenil injection by light/dark exploration test; format: functional
Rattus norvegicus [5] = experiment: Anxiolytic-like activity in Sprague-Dawley rat assessed as total number of arm entries at 10 mg/kg, po administered 30 mins prior to test by elevated […] maze test; format: functional
Mus musculus [6] = experiment: Anxiolytic-like activity in CD-1 mouse assessed as time spent in light area at 10 mg/kg, po administered 30 mins prior to test by light/dark exploration test relative to control; format: functional
Mus musculus [7] = experiment: Anxiolytic-like activity in CD-1 mouse assessed as time spent in light area at 10 mg/kg, po administered 30 mins prior to test followed by flumazenil injection by light/dark exploration test relative to control; format: functional
Mus musculus [8] = experiment: Anxiolytic-like activity in CD-1 mouse assessed as time spent in light area at 1 mg/kg, po administered 30 mins prior to test by light/dark exploration test relative to control; format: functional
Rattus norvegicus [9] = experiment: Anxiolytic-like activity in Sprague-Dawley rat assessed as time spent in open arms at 10 mg/kg, po administered 30 mins prior to test by elevated […] maze test relative to control; format: functional
Mus musculus [10] = experiment: Anxiolytic-like activity in CD-1 mouse assessed as number of transfer from one compartment to other at 3 mg/kg, po administered 30 mins prior to test by light/dark exploration test; format: functional
Mus musculus [11] = experiment: Anxiolytic-like activity in CD-1 mouse assessed as time spent in light area at 3 mg/kg, po administered 30 mins prior to test by light/dark exploration test relative to control; format: functional
[12] = biological target: GABA A receptor alpha-2/beta-2/gamma-2 (Homo sapiens) (UniProt P47870+P18507+P47869); experiment: Displacement of [3H]Ro15-1788 from GABA-Aalpha2beta2gamma2 receptor (unknown origin) expressed in cell membranes after 1 hr relative to control
Mus musculus [13] = experiment: Anxiolytic-like activity in CD-1 mouse assessed as number of transfer from one compartment to other at 1 mg/kg, po administered 30 mins prior to test by light/dark exploration test; format: functional
Mus musculus [14] = experiment: Anxiolytic-like activity in CD-1 mouse assessed as number of transfer from one compartment to other at 10 mg/kg, po administered 30 mins prior to test by light/dark exploration test; format: functional
[15] = biological target: T1, GABA-A receptor; alpha-1/beta-2/gamma-2 (Homo sapiens, UniProt P14867+P18507+P47870); experiment: Displacement of [3H]Ro15-1788 from GABA-Aalpha1beta2gamma2 receptor (unknown origin) expressed in cell membranes after 1 hr
T1 sequence (P14867 whole entry): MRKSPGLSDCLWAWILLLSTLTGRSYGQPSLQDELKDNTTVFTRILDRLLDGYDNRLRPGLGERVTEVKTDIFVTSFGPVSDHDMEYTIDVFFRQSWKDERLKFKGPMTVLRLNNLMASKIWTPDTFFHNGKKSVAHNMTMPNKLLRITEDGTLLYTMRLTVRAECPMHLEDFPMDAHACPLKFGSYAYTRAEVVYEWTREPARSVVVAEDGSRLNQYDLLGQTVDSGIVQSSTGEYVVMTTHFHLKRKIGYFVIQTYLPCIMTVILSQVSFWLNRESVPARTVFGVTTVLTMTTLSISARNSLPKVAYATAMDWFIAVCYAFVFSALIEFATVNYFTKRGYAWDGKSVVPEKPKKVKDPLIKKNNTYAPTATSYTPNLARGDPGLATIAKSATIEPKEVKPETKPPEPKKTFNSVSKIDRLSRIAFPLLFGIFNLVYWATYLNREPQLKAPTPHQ
T1 sequence (P47870 whole entry): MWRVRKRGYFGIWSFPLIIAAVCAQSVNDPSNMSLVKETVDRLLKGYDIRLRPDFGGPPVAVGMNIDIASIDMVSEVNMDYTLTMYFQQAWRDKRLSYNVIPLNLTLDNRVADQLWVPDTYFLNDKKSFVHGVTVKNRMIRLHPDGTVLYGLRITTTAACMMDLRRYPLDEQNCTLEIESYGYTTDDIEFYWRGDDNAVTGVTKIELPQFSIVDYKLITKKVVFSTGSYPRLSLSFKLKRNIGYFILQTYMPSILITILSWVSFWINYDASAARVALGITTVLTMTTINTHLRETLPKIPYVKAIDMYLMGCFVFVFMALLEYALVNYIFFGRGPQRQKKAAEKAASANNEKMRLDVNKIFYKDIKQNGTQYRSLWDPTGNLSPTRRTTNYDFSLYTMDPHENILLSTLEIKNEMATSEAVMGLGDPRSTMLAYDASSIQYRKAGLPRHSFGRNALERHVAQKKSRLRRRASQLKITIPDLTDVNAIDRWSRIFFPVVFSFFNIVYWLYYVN
T1 sequence (P18507 whole entry): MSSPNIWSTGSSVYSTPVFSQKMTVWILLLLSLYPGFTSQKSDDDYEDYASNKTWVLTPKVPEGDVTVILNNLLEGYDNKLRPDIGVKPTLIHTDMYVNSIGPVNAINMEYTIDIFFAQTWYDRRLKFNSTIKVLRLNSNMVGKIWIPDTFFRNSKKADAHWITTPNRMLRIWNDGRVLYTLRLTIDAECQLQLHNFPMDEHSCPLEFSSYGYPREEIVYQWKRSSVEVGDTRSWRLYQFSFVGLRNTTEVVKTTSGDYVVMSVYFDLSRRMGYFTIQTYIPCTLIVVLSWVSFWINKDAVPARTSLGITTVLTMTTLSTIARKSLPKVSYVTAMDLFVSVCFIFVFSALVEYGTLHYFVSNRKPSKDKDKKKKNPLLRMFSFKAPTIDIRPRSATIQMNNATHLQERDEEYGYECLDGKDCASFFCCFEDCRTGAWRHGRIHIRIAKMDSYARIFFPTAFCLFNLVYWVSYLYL

Mus musculus [16] = experiment: Anxiolytic-like activity in CD-1 mouse assessed as number of transfer from one compartment to other at 30 mg/kg, po administered 30 mins prior to test by light/dark exploration test; format: functional
Rattus norvegicus [17] = experiment: Anxiolytic-like activity in Sprague-Dawley rat assessed as time spent in open arms at 1 mg/kg, po administered 30 mins prior to test by elevated […] maze test relative to control; format: functional
Rattus norvegicus [18] = experiment: Anxiolytic-like activity in Sprague-Dawley rat assessed as total number of arm entries at 1 mg/kg, po administered 30 mins prior to test by elevated […] maze test; format: functional
Mus musculus [19] = experiment: Anxiolytic-like activity in CD-1 mouse assessed as increase in time spent in light area at 1 to 30 mg/kg, po administered 30 mins prior to test by light/dark exploration test; format: functional, organism-based

O=c1c(Cc2ccccc2)c[nH]c2c(-c3ccccc3)cnn12
inhibition (Bos taurus): > 80% | Ki ([1]; read-out: Ki): 132 nM

O=c1c(-c2ccccc2)c[nH]c2c(-c3ccc4ccccc4c3)cnn12
inhibition (Bos taurus): < 80% | Ki [1]: Not Active

O=c1c(Cc2ccccc2)c[nH]c2c(-c3ccc4ccccc4c3)cnn12
inhibition (Bos taurus): > 80% | Ki ([1]; read-out: Ki): 73.3 nM

O=c1c(-c2ccccc2)c[nH]c2c(-c3ccc(F)cc3)cnn12
inhibition (Bos taurus): > 80% | Ki ([1]; read-out: Ki): 132 nM

O=c1c(Cc2ccccc2)c[nH]c2c(-c3cccs3)cnn12
inhibition (Bos taurus): > 80% | Ki ([1]; read-out: Ki): 502 nM

O=c1c(Cc2ccccc2)c[nH]c2c(-c3cccc(C(F)(F)F)c3)cnn12
inhibition (Bos taurus): > 80% | Ki ([1]; read-out: Ki): 22.3 nM

O=c1c(-c2ccccc2)c[nH]c2c(-c3ccccc3)cnn12
inhibition (Bos taurus): > 80% | Ki ([1]; read-out: Ki): 368 nM

O=c1c(Cc2ccccc2)c[nH]c2c(-c3cccc(Br)c3)cnn12
inhibition (Bos taurus): > 80% | Ki ([1]; read-out: Ki): 29.9 nM

O=c1c(-c2ccccc2)c[nH]c2c(-c3cccc4ccccc34)cnn12
inhibition (Bos taurus): > 80% | Ki ([1]; read-out: Ki): 375 nM

Cc1cccc(-c2cnn3c(=O)c(Cc4ccccc4)c[nH]c23)c1
inhibition (Bos taurus): > 80% | Ki ([1]; read-out: Ki): 18 nM

O=c1c(Cc2ccccc2)c[nH]c2c(-c3ccsc3)cnn12
inhibition (Bos taurus): < 80% | Ki [1]: Not Active

COc1cccc(-c2cnn3c(=O)c(Cc4ccccc4)c[nH]c23)c1
inhibition (Bos taurus): > 80% | Ki ([1]; read-out: Ki): 49.6 nM

O=c1c(Cc2ccccc2)c[nH]c2c(Cc3ccccc3)cnn12
inhibition (Bos taurus): < 80% | Ki [1]: Not Active

O=c1c(Cc2ccccc2)c[nH]c2c(-c3cccc4ccccc34)cnn12
inhibition (Bos taurus): > 80% | Ki ([1]; read-out: Ki): 112 nM

O=c1c(-c2ccccc2)c[nH]c2c(-c3cccnc3)cnn12
inhibition (Bos taurus): > 80% | Ki ([1]; read-out: Ki): 58.4 nM

O=c1c(-c2ccccc2)c[nH]c2c(Cc3ccccc3)cnn12
inhibition (Bos taurus): < 80% | Ki [1]: Not Active

O=c1c(Cc2ccccc2)c[nH]c2c(-c3ccccn3)cnn12
Activity (Mus musculus [2]): 164.4% | inhibition [3]: 31% | Activity (Mus musculus [4]): 12.8 | Activity (Rattus norvegicus [5]): 10.5 | Activity (Mus musculus [6]): 165.4% | Activity (Mus musculus [7]): 120.08% | inhibition (Bos taurus): > 80% | Activity (Mus musculus [8]): 113.9% | Activity (Rattus norvegicus [9]): 29.6% | Activity (Mus musculus [10]): 21.3 | Activity (Mus musculus [11]): 145.2% | Ki ([1]; read-out: Ki): 29.8 nM | inhibition [12]: 14% | Activity (Mus musculus [13]): 15 | Activity (Mus musculus [14]): 23.9 | Ki [15]: 183 nM | Activity (Mus musculus [16]): 28.9

O=c1c(-c2ccccc2)c[nH]c2c(-c3ccsc3)cnn12
inhibition (Bos taurus): > 80% | Ki ([1]; read-out: Ki): 72.2 nM

O=c1c(-c2ccccc2)c[nH]c2c(-c3cccc(C(F)(F)F)c3)cnn12
inhibition (Bos taurus): > 80% | Ki ([1]; read-out: Ki): 118 nM

CN1C(=O)CN=C(c2ccccc2)c2cc(Cl)ccc21 [DIAZEPAM]
Activity (Mus musculus [8]): 171.6% | Activity (Rattus norvegicus [17]): 34.9% | Ki ([1]; read-out: Ki): 10 nM | Activity (Rattus norvegicus [18]): 10.5 | Activity (Mus musculus [13]): 8.3

O=c1c(Cc2ccccc2)c[nH]c2c(-c3ccc(F)cc3)cnn12
inhibition (Bos taurus): > 80% | Ki ([1]; read-out: Ki): 34.6 nM

Cc1cccc(-c2cnn3c(=O)c(-c4ccccc4)c[nH]c23)c1
inhibition (Bos taurus): > 80% | Ki ([1]; read-out: Ki): 87 nM

COc1cccc(-c2cnn3c(=O)c(-c4ccccc4)c[nH]c23)c1
inhibition (Bos taurus): > 80% | Ki ([1]; read-out: Ki): 192 nM

O=c1c(-c2ccccc2)c[nH]c2c(-c3ccccn3)cnn12
inhibition (Bos taurus): > 80% | Activity (Mus musculus [19]): inactive | Ki ([1]; read-out: Ki): 211 nM

O=c1c(-c2ccccc2)c[nH]c2c(-c3cccc(Br)c3)cnn12
inhibition (Bos taurus): > 80% | Ki ([1]; read-out: Ki): 39.3 nM

O=c1c(Cc2ccccc2)c[nH]c2c(-c3cccnc3)cnn12
inhibition (Bos taurus): > 80% | Ki ([1]; read-out: Ki): 73.3 nM

O=c1c(-c2ccccc2)c[nH]c2c(-c3cccs3)cnn12
inhibition (Bos taurus): > 80% | Ki ([1]; read-out: Ki): 215 nM
